Among the data in patent US20120015907A1, “Furopyridine compounds and uses thereof” (NOVARTIS AG, priority 2010, published 2012) are IC50 values, retold here.

Each structure is given as a SMILES string.

The target in the first experiment is T1, HCV polymerase (Hepatitis C virus genotype 1b, UniProt Q9WMX2).
T1 construct: (His)6 (C)
The experiment in a line: biochemical. The note with it: NS5B polymerase IC50 μM, polymerase assay of Biological Example 1.
As for `CNC(=O)c1c(-c2ccc(C)cc2)oc2nc(N(CCCCCP(C)(=O)O)S(C)(=O)=O)c(I)cc12` [Example 23.9998, 5-(N-(5-iodo-3-(methylcarbamoyl)-2-p-tolylfuro[2,3-b]pyridin-6-yl)methylsulfonamido)pentyl (methyl)phosphinic acid], the IC50 (usually the midpoint of a concentration-inhibition curve) was determined as 0.011 µM.

Compound `CNC(=O)c1c(-c2ccc(C)cc2)oc2nc(N(CCCCP(C)(=O)O)S(C)(=O)=O)c(I)cc12` [Example 23.9999, 4-(N-(5-iodo-3-(methylcarbamoyl)-2-p-tolylfuro[2,3-b]pyridin-6-yl)methylsulfonamido)butyl (methyl)phosphinic acid] gave an IC50 of 0.013 µM. With `CCOP(C)(=O)CCCN(c1nc2oc(-c3ccc(C)cc3)c(C(=O)NC)c2cc1C1CC1)S(C)(=O)=O` (centres unmarked) [Example 23.99992, ethyl 3-(N-(5-cyclopropyl-3-(methylcarbamoyl)-2-p-tolylfuro[2,3-b]pyridin-6-yl)methylsulfonamido)propyl (methyl)phosphinate], the IC50 was 0.007 µM.

Take `CCOP(C)(=O)CCCCN(c1nc2oc(-c3ccc(C)cc3)c(C(=O)NC)c2cc1C1CC1)S(C)(=O)=O` (centres unmarked) [Example 23.99993, ethyl 4-(N-(5-cyclopropyl-3-(methylcarbamoyl)-2-p-tolylfuro[2,3-b]pyridin-6-yl)methylsulfonamido)butyl (methyl)phosphinate]: inhibition was half-maximal at 0.011 µM (IC50). The compound `CCOP(C)(=O)CCCCCN(c1nc2oc(-c3ccc(C)cc3)c(C(=O)NC)c2cc1C1CC1)S(C)(=O)=O` (centres unmarked) [Example 23.99995, ethyl 5-(N-(5-cyclopropyl-3-(methylcarbamoyl)-2-p-tolylfuro[2,3-b]pyridin-6-yl)methylsulfonamido)pentyl (methyl)phosphinate] yielded an IC50 of 0.009 µM. On the same count and under the same terms, the figure for `CNC(=O)c1c(-c2ccc(C)cc2)oc2nc(N(CCCP(C)(=O)O)S(C)(=O)=O)c(C3CC3)cc12` [Example 23.99998, 3-(N-(5-cyclopropyl-3-(methylcarbamoyl)-2-p-tolylfuro[2,3-b]pyridin-6-yl)methylsulfonamido)propyl (methyl)phosphinic acid] is 0.005 µM; for `CNC(=O)c1c(-c2ccc(C)cc2)oc2nc(N(CCCCP(C)(=O)O)S(C)(=O)=O)c(C3CC3)cc12` [Example 23.99999, 4-(N-(5-cyclopropyl-3-(methylcarbamoyl)-2-p-tolylfuro[2,3-b]pyridin-6-yl)methylsulfonamido)butyl (methyl)phosphinic acid] it is 0.006 µM; for `CNC(=O)c1c(-c2ccc(C)cc2)oc2nc(N(CCCCCP(C)(=O)O)S(C)(=O)=O)c(C3CC3)cc12` [Example 23.999991, 5-(N-(5-cyclopropyl-3-(methylcarbamoyl)-2-p-tolylfuro[2,3-b]pyridin-6-yl)methylsulfonamido)pentyl (methyl)phosphinic acid] it is 0.004 µM.

The same experiment, now with this note: polymerase assay of Biological Example 1; read-out: NS5B polymerase IC50.
On to `CNC(=O)c1c(-c2ccc(C)cc2)oc2nc(N(CCCCCO)S(C)(=O)=O)c(I)cc12` [Example 23.99991, 6-(N-(5-hydroxypentyl)methylsulfonamido)-5-iodo-N-methyl-2-p-tolylfuro[2,3-b]pyridine-3-carboxamide], for which the IC50 amounted to 0.009 µM. Same read-out and setting: the figure for `CNC(=O)c1c(-c2ccc(C)cc2)oc2nc(N(CCCCO)S(C)(=O)=O)c(C3CC3)cc12` [Example 23.99994, 5-cyclopropyl-6-(N-(4-hydroxybutyl)methylsulfonamido)-N-methyl-2-p-tolylfuro[2,3-b]pyridine-3-carboxamide] is 0.003 µM; for `CNC(=O)c1c(-c2ccc(C)cc2)oc2nc(N(CCCCCO)S(C)(=O)=O)c(C3CC3)cc12` [Example 23.99996, 5-cyclopropyl-6-(N-(5-hydroxypentyl)methylsulfon amido)-N-methyl-2-p-tolylfuro[2,3-b]pyridine-3-carboxamide] it is 0.002 µM; for `CNC(=O)c1c(-c2ccc(C)cc2)oc2nc(N(CCCO)S(C)(=O)=O)c(C3CC3)cc12` [Example 23.99997, 5-cyclopropyl-6-(N-(3-hydroxypropyl)methylsulfonamido)-N-methyl-2-p-tolylfuro[2,3-b]pyridine-3-carboxamide] it is 0.004 µM. Turning to `CNC(=O)c1c(-c2ccc(C)cc2)oc2nc(N(CCCNS(=O)(=O)C(F)(F)F)S(C)(=O)=O)c(C3CC3)cc12` [Example 23.999992, 5-cyclopropyl-N-methyl-2-p-tolyl-6-(N-(3-(trifluoromethylsulfonamido)propyl)methylsulfonamido) furo[2,3-b]pyridine-3-carboxamide], the IC50 turned out to be 0.002 µM. The same measure, in the same setting: the figure for `CNC(=O)c1c(-c2ccc(C)cc2)oc2nc(N(CCCCN)S(C)(=O)=O)c(C3CC3)cc12` [Example 23.999993, 6-(N-(4-aminobutyl)methylsulfonamido)-5-cyclopropyl-N-methyl-2-p-tolylfuro[2,3-b]pyridine-3-carboxamide] is 0.016 µM. On the same count and under the same terms, the figure for `CNC(=O)c1c(-c2ccc(C)cc2)oc2nc(N(CCCCCN)S(C)(=O)=O)c(C3CC3)cc12` [Example 23.999994, 6-(N-(5-aminopentyl)methylsulfonamido)-5-cyclopropyl-N-methyl-2-p-tolylfuro[2,3-b]pyridine-3-carboxamide] is 0.014 µM; for `CNC(=O)c1c(-c2ccc(C)cc2)oc2nc(N(CCCN)S(C)(=O)=O)c(C3CC3)cc12` [Example 23.999995, 6-(N-(3-aminopropyl)methylsulfonamido)-5-cyclopropyl-N-methyl-2-p-tolylfuro[2,3-b]pyridine-3-carboxamide] it is 0.014 µM; for `CNC(=O)c1c(-c2ccc(C)cc2)oc2nc(N(CCCNCCCC(=O)O)S(C)(=O)=O)c(C3CC3)cc12` [Example 23.999996, 4-(3-(N-(5-cyclopropyl-3-(methylcarbamoyl)-2-p-tolylfuro[2,3-b]pyridin-6-yl)methylsulfonamido)propylamino)butanoic acid] it is 0.016 µM. Same read-out and setting: under `CNC(=O)c1c(-c2ccc(C)cc2)oc2nc(N(CCCN3CCCC3=O)S(C)(=O)=O)c(C3CC3)cc12` [Example 23.999997, 5-cyclopropyl-N-methyl-6-(N-(3-(2-oxopyrrolidin-1-yl)propyl)methylsulfonamido)-2-p-tolylfuro[2,3-b] pyridine-3-carboxamide] stands 0.005 µM; under `CNC(=O)c1c(-c2ccc(C)cc2)oc2nc(N(CCOCCCC(=O)O)S(C)(=O)=O)c(C3CC3)cc12` [Example 23.999998, 4-(2-(N-(5-cyclopropyl-3-(methylcarbamoyl)-2-p-tolylfuro[2,3-b]pyridin-6-yl)methylsulfonamido)ethoxy)butanoic acid], 0.005 µM; under `CNC(=O)c1c(-c2ccc(C)cc2)oc2nc(N(CCOCCC(CCOC)C(=O)O)S(C)(=O)=O)c(C3CC3)cc12` (centres unmarked) [Example 23.999999, 4-{2-[(5-Cyclopropyl-3-methylcarbamoyl-2-p-tolyl-furo[2,3-b]pyridin-6-yl)-methanesulfonyl-amino]-ethoxy}-2-(2-methoxy-ethyl)-butyric acid], 0.02 µM. Turning to `C=Cc1cc2c(C(=O)NC)c(-c3ccc(F)cc3)oc2nc1N(CCCCC(=O)O)S(C)(=O)=O` [Example 24.1, 5-(N-(2-(4-fluorophenyl)-3-(methylcarbamoyl)-5-vinylfuro[2,3-b]pyridin-6-yl)methylsulfonamido) pentanoic acid], the IC50 amounted to 0.078 µM.

`CNC(=O)c1c(-c2ccc(F)cc2)oc2nc(N(CCC3CCS(=O)(=O)C3)S(C)(=O)=O)c(C3CC3)cc12` (centres unmarked) [Example 25.91, 5-Cyclopropyl-6-{[2-(1,1-dioxo-tetrahydro-thiophen-3-yl)-ethyl]-methanesulfonyl-amino}-2-(4-fluoro-phenyl)-furo[2,3-b]pyridine-3-carboxylic acid methylamide]: the half-inhibitory concentration (IC50) turned out to be 0.003 µM.

Consider `CNC(=O)c1c(-c2ccc(F)cc2)oc2nc(N(CCCCC(=O)O)S(C)(=O)=O)c(C3CC3)cc12` [Example 26.9, 5-(N-(5-cyclopropyl-2-(4-fluorophenyl)-3-(methylcarbamoyl)furo[2,3-b]pyridin-6-yl)methylsulfonamido) pentanoic acid], for which the concentration for half-maximal inhibition (IC50) turned out to be 0.003 µM. Same read-out and setting: the figure for `CNC(=O)c1c(-c2ccc(F)cc2)oc2nc(N(CCCC(C)(C)C(=O)O)S(C)(=O)=O)c(C3CC3)cc12` [Example 27.1, 5-(N-(5-cyclopropyl-2-(4-fluorophenyl)-3-(methylcarbamoyl)furo[2,3-6]pyridin-6-yl)methylsulfonamido)-2,2-dimethylpentanoic acid] is 0.012 µM; for `CNC(=O)c1c(-c2ccc(Oc3ccccc3F)cc2)oc2nc(N(CCCCC(=O)O)S(C)(=O)=O)c(C3CC3)cc12` [Example 27.3, 5-(N-(5-cyclopropyl-2-(4-(2-fluorophenoxy)phenyl)-3-(methylcarbamoyl)furo[2,3-b]pyridin-6-yl)methylsulfonamido) pentanoic acid] it is 0.023 µM; for `CNC(=O)c1c(-c2ccc(C)cc2)oc2nc(N(CCCC3(C(=O)O)CCOCC3)S(C)(=O)=O)c(C3CC3)cc12` [Example 28.4, 4-(3-(N-(5-cyclopropyl-3-(methylcarbamoyl)-2-p-tolylfuro[2,3-b]pyridin-6-yl)methylsulfonamido)propyl)tetrahydro-2H-pyran-4-carboxylic acid] it is 0.003 µM.

On to `CNC(=O)c1c(-c2ccc(C)cc2)oc2nc(N(CCCC(=O)O)S(C)(=O)=O)c(C3CC3)cc12` [Example 28.9, 4-(N-(5-cyclopropyl-3-(methylcarbamoyl)-2-p-tolylfuro[2,3-b]pyridin-6-yl)methylsulfonamido) butanoic acid], for which the IC50 amounted to 0.002 µM. The same measure, in the same setting: under `CCc1ccc(-c2oc3nc(N(CCCC(C)(C)C(=O)O)S(C)(=O)=O)c(C4CC4)cc3c2C(=O)NC)cc1` [Example 29, 5-{[5-Cyclopropyl-2-(4-ethyl-phenyl)-3-methylcarbamoyl-furo[2,3-b]pyridin-6-yl]-methanesulfonyl-amino}-2,2-dimethyl-pentanoic acid] stands 0.001 µM; under `CNC(=O)c1c(-c2ccc(C)cc2)oc2nc(N(CCCC3(C(=O)O)CCC3)S(C)(=O)=O)c(C3CC3)cc12` [Example 29.1, 1-{3-[(5-Cyclopropyl-3-methylcarbamoyl-2-p-tolyl-furo[2,3-b]pyridin-6-yl)-methanesulfonyl-amino]-propyl}-cyclobutanecarboxylic acid], 0.002 µM.
